# Assay results published in patent US6653081B2, “Methods for monitoring antiretroviral therapy and guiding therapeutic decision in the treatment of HIV/AIDS” (ViroLogic, Inc., priority 2000, dated 2003).
# Experiments:
# RTV-I270S = test: Phenotypic susceptibility assay, RTV-I270S; assay type: cell-based, HIV-1; settings: site-directed I270S alone
# Excerpt: (§1) The resistance test vectors containing a functional luciferase gene cassette were constructed and host cells were transfected with the resistance test vector DNA. The resistant test vectors contained patient-derived reverse transcriptase and protease sequences that were either susceptible or resistant to the antiretroviral agents, such as nucleoside reverse transcriptase inhibitors, (NRTIs) non-nucleoside reverse transcriptase inhibitors […] protease inhibitors. The resistance test vector viral particles produced by transfecting the resistance test vector DNA into host cells, either in the presence or absence of PRIs, were used to infect target host cells grown either in the absence of NRTIs or NNRTIs, or in the presence of increasing concentrations of the drug. The amount of luciferase activity produced in infected target host cells in the presence of varying concentrations of drug was compared to the amount of luciferase produced in infected target host cells in the absence of drug. “Drug resistance” was measured as the amount of drug required to inhibit by 50% the luciferase activity detected in the absence of drug (inhibitory concentration 50%, IC50). The IC50 values were determined by plotting percent drug inhibition vs. log10 drug concentration. Stimulation of viral replication was measured as the percent increase in luciferase activity detected when infection occurs in the presence of drug as compared to in the absence of drug.
# (§2) Host cells were seeded in 10-cm-diameter dishes and were transfected several days after plating with resistance test vector plasmid DNA and the envelope expression vector. Transfections were performed using a calcium-phosphate precipitation procedure. The cell culture media containing the DNA precipitate was replaced with fresh medium, from one to 24 hours, after transfection. Cell culture media containing resistance test vector viral particles was harvested one to four days after transfection and was passed through a […] filter before being used to infect target host cells, or being stored at −80° C. HIV capsid protein (p24) levels in the harvested cell culture media were determined by an EIA method as described by the manufacturer (SAIC; Frederick, Md.). Before infection, target cells (293 and 293/T) were plated in cell culture media. Control infections were performed using cell culture media from mock transfections (no DNA) or transfections containing the resistance test vector plasmid DNA without the envelope expression plasmid. One to three or more days after infection, the media was removed and cell lysis buffer (Promega) was added to each well. Cell lysates were assayed for luciferase activity (FIG. 3). The inhibitory effect of the drug was determined using the following equation:
# (§3) % luciferase inhibition=1−(RLUluc[drug]÷RLUluc)×100
# (§4) where RLUluc [drug] is the Relative Light Unit of luciferase activity in infected cells in the presence of drug, and RLUluc is the Relative Light Unit of luciferase activity in infected cells in the absence of drug. IC50values were obtained from the sigmoidal curves that were generated from the data by plotting the percent inhibition of luciferase activity vs. the log10 drug concentration. The percent luciferase stimulation is the negative of the % inhibition calculated using the formula above.
# A resistance test vector containing all of the mutations present in […] except for the I270S (RTV-013522/270I) was constructed and tested using the phenotypic assay described earlier. The results were compared to those determined using the parent RTV-013522. We determined the pattern of phenotypic susceptibility to the NNRTIs, delavirdine, nevirapine and efavirenz, in the reverted vector RTV-013522/270I. […] In this patient sample the correlation of drug-dependent stimulation of viral replication with the mutation at I270S is very striking. […]
# RTV-014451 = test: Phenotypic susceptibility assay, RTV-014451; assay type: cell-based, HIV; settings: patient 014451, week 32; for decrease in susceptibility: K101E, V106M, G190A on 241 backbone
# Excerpt: as §1, §2, §3, §4
# Resistance test vectors were constructed as described in Example 1 from virus samples obtained from an individual patient at two separate time points separated by a 32-week period. The prior and current treatment regimens are unknown. Isolation of viral RNA and RT/PCR was used to generate patient derived segments (PDS) that comprised viral sequences coding for all of PR and aa […] of RT from […]. The PDS were inserted into an indicator gene viral vector to generate resistance test vectors designated RTV-014459 and RTV-014451. […]
# RTV-012123 = test: Phenotypic susceptibility assay, RTV-012123; assay type: cell-based, HIV; settings: patient 012123; for decrease in susceptibility: 245 with multiple other mutations
# Excerpt: as §1, §2, §3, §4
# (§5) A resistance test vector was constructed as described in Example 1 from a virus sample obtained from patient 012123. The prior and current treatment regimens are unknown. Isolation of viral RNA and RT/PCR was used to generate a patient derived segment (PDS) that comprised viral sequences coding for all of PR and aa 1-313 of RT. The PDS were inserted into an indicator gene viral vector to generate a resistance test vector designated RTV-012123. RTV-012123 was then tested in a phenotypic assay to determine accurately and quantitatively the level of susceptibility to a panel of anti-retroviral drugs. […]
# RTV-K103N = test: Phenotypic susceptibility assay, RTV-K103N; assay type: cell-based, HIV-1; settings: site-directed K103N alone
# Excerpt: as §1, §2, §3, §4
# A resistance test vector containing a single mutation, K103N, (RTV-K103N) was constructed and tested in the phenotypic assay described earlier. The results were compared to those determined using a genetically defined resistance test vector that was wild type at positions 103. We determined the pattern of phenotypic susceptibility to the NNRTIs, delavirdine, nevirapine and efavirenz, in RTV-K103N.
# RTV-014397 = test: Phenotypic susceptibility assay, RTV-014397; assay type: cell-based, HIV; settings: patient 014397; for decrease in susceptibility: 245 and 103
# Excerpt: as §1, §2, §3, §4
# as §5, with “014397.” for “012123.”, “RTV-014397. RTV-014397” for “RTV-012123. RTV-012123”
# [1] = test system: RTV-1033, RTV-008973, RTV-757, RTV-008980 and RTV-1080; test: Phenotypic susceptibility assay, patient 1033 RTV pools; assay type: cell-based, HIV; settings: range over five RTV pools of one patient
# Excerpt: as §1, §2, §3, §4
# Resistance test vectors were constructed as described in Example 1 from virus samples obtained from an individual patient at thirteen separate time points over a 2½-year period. This patient had been previously treated with two NRTIs (zidovudine and lamivudine) AZT, 3TC (NRTIS), and a PRI (indinavir) for a period of approximately 2 years at the time the first (97-309) and second (98-754) samples were obtained. The patient began taking a new anti-viral regimen including an NRTI (stavudine), an NNRTI (nevirapine), and two PRIs (nelfinavir and saquinavir) at the time the third sample (98-1032) was obtained. […]
smiles,measurement,setting,value
CC(C)Nc1cccnc1N1CCN(C(=O)c2cc3cc(NS(C)(=O)=O)ccc3[nH]2)CC1 [delavirdine],drug-dependent stimulation of viral replication,RTV-I270S,~60%
same,reductions in susceptibility compared to wild type control RTV,RTV-I270S,13 fold
same,drug-dependent stimulation of viral replication,RTV-014451,~90%
same,decrease in susceptibility,RTV-014451,41 fold
same,drug-dependent stimulation of viral replication,RTV-012123,~80%
same,decrease in susceptibility,RTV-012123,> 250 fold
same,drug-dependent stimulation of viral replication,RTV-K103N,no drug-dependent stimulation
same,reductions in susceptibility compared to wild type control RTV,RTV-K103N,87 fold
same,drug-dependent stimulation of viral replication,RTV-014397,~100%
same,decrease in susceptibility,RTV-014397,> 250 fold
same,drug-dependent stimulation of viral replication,[1],20 to 180%
same,reductions in susceptibility,[1],3 to 18 fold
O=C1Nc2ccc(Cl)cc2[C@@](C#CC2CC2)(C(F)(F)F)O1 [efavirenz],drug-dependent stimulation of viral replication,RTV-I270S,~40%
same,reductions in susceptibility compared to wild type control RTV,RTV-I270S,4 fold
same,drug-dependent stimulation of viral replication,RTV-014451,~70%
same,decrease in susceptibility,RTV-014451,> 450 fold
same,drug-dependent stimulation of viral replication,RTV-012123,~70%
same,decrease in susceptibility,RTV-012123,> 450 fold
same,drug-dependent stimulation of viral replication,RTV-K103N,no drug-dependent stimulation
same,reductions in susceptibility compared to wild type control RTV,RTV-K103N,29 fold
same,drug-dependent stimulation of viral replication,RTV-014397,~70%
same,decrease in susceptibility,RTV-014397,> 450 fold
same,drug-dependent stimulation of viral replication,[1],30 to 170%
same,reductions in susceptibility,[1],16 to 300 fold
Cc1ccnc2c1NC(=O)c1cccnc1N2C1CC1 [nevirapine],drug-dependent stimulation of viral replication,RTV-I270S,~60%
same,reductions in susceptibility compared to wild type control RTV,RTV-I270S,15 fold
same,drug-dependent stimulation of viral replication,RTV-014451,~100%
same,decrease in susceptibility,RTV-014451,> 600 fold
same,drug-dependent stimulation of viral replication,RTV-012123,~20%
same,decrease in susceptibility,RTV-012123,> 600 fold
same,drug-dependent stimulation of viral replication,RTV-K103N,no drug-dependent stimulation
same,reductions in susceptibility compared to wild type control RTV,RTV-K103N,67 fold
same,drug-dependent stimulation of viral replication,RTV-014397,~100%
same,decrease in susceptibility,RTV-014397,> 600 fold
same,drug-dependent stimulation of viral replication,[1],40 to 250%
same,reductions in susceptibility,[1],> 600 fold
